Several values for one entry are separate records, joined by “and”; a condition that tells them apart may be missing. Identical values can stand only once. Entries after “also recorded” stand apart in the source; their conditions may differ. Marks after values point to notes of the source that are not given here.
Columns and labels:
healthy male volunteers = assay: First-human study of P32/98 with extended OGTT: active GLP-1, insulin and glucose; assay type: in vivo; conditions: for Maximum change in GLP-1, active (0-12h, median) / Maximum change in glucose (0-12h, median) / Maximum change in insulin (0-12h, median): OGTT; for Increase of mean insulin concentration after 75 g glucose at 10 min post-dose: within 40-55 min
Text: The 36 healthy male subjects were divided into 3 individual groups with each group containing 12 subjects. […] The subjects in all groups who were receiving placebo were given placebo at both dosing intervals.
Each subject participated in the pre-study and experimental phase, which were separated by a washout phase of at least 5 days. The follow-up examination was done at least 7 days after the last dose of study drug. The study procedures of the six periods were identical, except for the dose under investigation.
At each glucose tolerance test, subjects ingested 300 mL of a mono-/disaccharid solution equivalent to 75 g glucose (Dextro®O.G.-T, Boehringer Mannheim, FRG).
An extended OGTT was performed on Day 1 of each dosing period. Subjects ingested 300 mL of a mono-/disaccharid solution equivalent to 75 g glucose. […] Additionally other pharmacodynamic assessments that are well known in the art were taken.
Insulin: 4.7 ml blood was collected into 4.9 ml EDTA-tubes. Samples were centrifuged (1500 g, 10 min) and stored frozen at −70° C. until laboratory analysis.
Glucose: 1.2 ml blood was collected into 1.2 ml sodium fluoride tubes. Plasma samples were centrifuged at 1500 g for 10 min and stored frozen at −70° C. until laboratory analysis. GLP-1: 2.7 ml blood was collected in EDTA tubes and placed on ice or refrigerated, to which a dipeptidyl peptidase IV-inhibitor was added. The inhibitor was prepared in advance by researchers. Blood was collected in tubes and centrifuged immediately at 1000 g for 10 min in refrigerated centrifuge or the blood was placed in ice and centrifuged within 1 hour and aliquoted into equal samples. Blood was stored in appropriate aliquots at −70° C. (to avoid multiple freezing/thawing cycles) until laboratory analysis.

Male Zucker fa/fa rats = assay: OGTT after 21 days treatment: blood glucose and plasma insulin; assay type: in vivo, rat
Procedure: The parameters monitored were morning blood glucose and plasma insulin levels. […] An OGTT was performed finally on day 21 to monitor blood glucose and plasma insulin kinetics to assess changes in glucose tolerance. Glibenclamide (DAB 1996; R011150/33372) was donated by Berlin-Chemie (Berlin, Germany). Male Zucker (fa/fa) rats of the body weight class of 300 g were purchased from Charles River (Sulzfeld, Germany). Repeated Dosing: 30 male non-diabetic Wistar and 30 male diabetic Zucker rats were randomized to RP (Reference Product: glibenclamide)-, TP- (jest Product: […] Thereafter, the non-diabetic Wistar rats were treated orally once daily with RP (5 mg/kg b.w.) or TP (21.61 mg/kg b.w.) and the diabetic Zucker rats were treated orally once daily with RP (1 mg/kg b.w.) or TP (21.61 mg/kg b.w.) for 21 days at 05.00 p.m. (before regular food intake in the dark phase). The controls were given 1% cellulose solution orally (5 ml/kg). […] The oral drug therapy was continued for one week. […] OGTT: A final OGTT was performed on day 21 with blood sampling from the tail vein. […] The latter were immediately centrifuged and the plasma fractions were stored at −20 ° C. for insulin analysis. Blood glucose: Glucose levels were measured using the glucose oxidase procedure (Super G Glukosemeβgerät; Dr. Müller Gerätebau, Freital, Germany). Plasma insulin: Insulin concentrations were assayed by the antibody RIA method (LINCO Research, Inc. St. Charles, Mo., USA).

isoleucyl thiazolidine hemifumarate [P32/98]
Baseline-corrected mean peak (Cmax) glucose concentration (healthy male volunteers; 7.5 mg): exceeded 4.0 mmol/l
Mean baseline-corrected glucose AUC (healthy male volunteers; 7.5 mg): > 200 mmol·min/L
Maximum change in GLP-1, active (0-12h, median) (healthy male volunteers; 7.5 mg oral single dose): 4.10 pmol/L
Maximum change in glucose (0-12h, median) (healthy male volunteers; 7.5 mg oral single dose): 4.66 mmol/L
Maximum change in insulin (0-12h, median) (healthy male volunteers; 7.5 mg oral single dose): 41.86 μIU/ml
Corrected AUC0→180 min of glucose concentrations after OGTT, Mean ± SD (healthy male volunteers; 7.5 mg, periods 1-3): 299.7 ± 111.4 mmol·min
Corrected Cmax of glucose concentrations 0-3 h after OGTT, Mean ± SD (healthy male volunteers; 7.5 mg, periods 1-3): 4.94 ± 1.58 mmol
Corrected glucose AUC0→180 min, Estimate (ANOVA comparison versus placebo) (healthy male volunteers; 7.5 mg, periods 1-3): 75.8 mmol·min
Corrected glucose Cmax, Estimate (ANOVA comparison versus placebo) (healthy male volunteers; 7.5 mg, periods 1-3): 0.78 mmol
Baseline-corrected mean peak (Cmax) glucose concentration (healthy male volunteers; 15 mg): below 3.0 mmol/l
Increase of group mean active GLP-1 concentration over pre-dose (healthy male volunteers; 15 mg): 11.6 pmol/L
Mean baseline-corrected glucose AUC (healthy male volunteers; 15 mg): below 200 mmol*min/l
Maximum change in GLP-1, active (0-12h, median) (healthy male volunteers; 15 mg oral single dose): 10.00 pmol/L
Maximum change in glucose (0-12h, median) (healthy male volunteers; 15 mg oral single dose): 2.43 mmol/L
Maximum change in insulin (0-12h, median) (healthy male volunteers; 15 mg oral single dose): 29.67 μIU/ml
Mean changes of glucose concentration at maximum (healthy male volunteers; 15 mg, 60 mg and 240 mg dosing groups): 1.71 to 3.41 mmol/L
Corrected AUC0→180 min of glucose concentrations after OGTT, Mean ± SD (healthy male volunteers; 15 mg, periods 1-3): 130.9 ± 125.2 mmol·min
Corrected Cmax of glucose concentrations 0-3 h after OGTT, Mean ± SD (healthy male volunteers; 15 mg, periods 1-3): 2.92 ± 1.10 mmol
Corrected glucose AUC0→180 min, Estimate (ANOVA comparison versus placebo) (healthy male volunteers; 15 mg, periods 1-3): -93.0 mmol·min
Corrected glucose Cmax, Estimate (ANOVA comparison versus placebo) (healthy male volunteers; 15 mg, periods 1-3): −1.24* mmol
Maximum change in GLP-1, active (0-12h, median) (healthy male volunteers; 30 mg oral single dose): 10.60 pmol/L
Maximum change in glucose (0-12h, median) (healthy male volunteers; 30 mg oral single dose): 3.38 mmol/L
Maximum change in insulin (0-12h, median) (healthy male volunteers; 30 mg oral single dose): 59.84 μIU/ml
Corrected AUC0→180 min of glucose concentrations after OGTT, Mean ± SD (healthy male volunteers; 30 mg, periods 1-3): 116.1 ± 134.0 mmol·min
Corrected Cmax of glucose concentrations 0-3 h after OGTT, Mean ± SD (healthy male volunteers; 30 mg, periods 1-3): 3.26 ± 1.07 mmol
Corrected glucose AUC0→180 min, Estimate (ANOVA comparison versus placebo) (healthy male volunteers; 30 mg, periods 1-3): -107.7 mmol·min
Corrected glucose Cmax, Estimate (ANOVA comparison versus placebo) (healthy male volunteers; 30 mg, periods 1-3): -0.90 mmol
Increase of mean insulin concentration after 75 g glucose at 10 min post-dose (healthy male volunteers; 30 mg): 56.92 μIU/ml
Maximum change in GLP-1, active (0-12h, median) (healthy male volunteers; 60 mg oral single dose): 12.20 pmol/L
Maximum change in glucose (0-12h, median) (healthy male volunteers; 60 mg oral single dose): 2.92 mmol/L
Maximum change in insulin (0-12h, median) (healthy male volunteers; 60 mg oral single dose): 43.35 μIU/ml
Corrected AUC0→180 min of glucose concentrations after OGTT, Mean ± SD (healthy male volunteers; 60 mg, periods 4-6): 151.8 ± 99.2 mmol·min
Corrected Cmax of glucose concentrations 0-3 h after OGTT, Mean ± SD (healthy male volunteers; 60 mg, periods 4-6): 3.50 ± 1.66 mmol
Corrected glucose AUC0→180 min, Estimate (ANOVA comparison versus placebo) (healthy male volunteers; 60 mg, periods 4-6): -101.1 mmol·min
Corrected glucose Cmax, Estimate (ANOVA comparison versus placebo) (healthy male volunteers; 60 mg, periods 4-6): −1.41* mmol
Maximum change in GLP-1, active (0-12h, median) (healthy male volunteers; 120 mg oral single dose): 11.10 pmol/L
Maximum change in glucose (0-12h, median) (healthy male volunteers; 120 mg oral single dose): 2.39 mmol/L
Maximum change in insulin (0-12h, median) (healthy male volunteers; 120 mg oral single dose): 28.63 μIU/ml
Corrected AUC0→180 min of glucose concentrations after OGTT, Mean ± SD (healthy male volunteers; 120 mg, periods 4-6): 126.7 ± 147.3 mmol·min
Corrected Cmax of glucose concentrations 0-3 h after OGTT, Mean ± SD (healthy male volunteers; 120 mg, periods 4-6): 3.09 ± 1.47 mmol
Corrected glucose AUC0→180 min, Estimate (ANOVA comparison versus placebo) (healthy male volunteers; 120 mg, periods 4-6): −126-1* mmol*min/
Corrected glucose Cmax, Estimate (ANOVA comparison versus placebo) (healthy male volunteers; 120 mg, periods 4-6): −1.82** mmol
Increase of mean insulin concentration after 75 g glucose at 10 min post-dose (healthy male volunteers; 120 mg): 30.12 μIU/ml
Baseline-corrected mean peak (Cmax) glucose concentration (healthy male volunteers; 240 mg): below 3.0 mmol/l
Increase of group mean active GLP-1 concentration over pre-dose (healthy male volunteers; 240 mg): 15.99 pmol/L
Mean baseline-corrected glucose AUC (healthy male volunteers; 240 mg): below 200 mmol*min/l
Maximum change in GLP-1, active (0-12h, median) (healthy male volunteers; 240 mg oral single dose): 14.50 pmol/L
Maximum change in glucose (0-12h, median) (healthy male volunteers; 240 mg oral single dose): 1.73 mmol/L
Maximum change in insulin (0-12h, median) (healthy male volunteers; 240 mg oral single dose): 33.36 μIU/ml
Corrected AUC0→180 min of glucose concentrations after OGTT, Mean ± SD (healthy male volunteers; 240 mg, periods 4-6): 24.7 ± 66.6 mmol·min
Corrected Cmax of glucose concentrations 0-3 h after OGTT, Mean ± SD (healthy male volunteers; 240 mg, periods 4-6): 1.99 ± 0.69 mmol
Corrected glucose AUC0→180 min, Estimate (ANOVA comparison versus placebo) (healthy male volunteers; 240 mg, periods 4-6): −228.2*** mmol*min/
Corrected glucose Cmax, Estimate (ANOVA comparison versus placebo) (healthy male volunteers; 240 mg, periods 4-6): −2.92*** mmol
Effect on active GLP-1 (healthy male volunteers; 7.5-mg dose level): no effect discernible from placebo treatment
Increase of glucose concentrations during the OGTT compared with placebo (healthy male volunteers; 15-240 mg): significantly lower increase
Insulin concentrations following stimulation with 75 g glucose (healthy male volunteers; 120-240 mg): appeared to be decreased
Glycemia at the last drug application (Male Zucker fa/fa rats; 05.00 p.m., night before day 21): 5.75 ± 0.23 mmol/L
G-AUC in comparison to the placebo application (Male Zucker fa/fa rats; day 21): did not increase
Mean blood glucose curve in the OGTT versus controls (Male Zucker fa/fa rats; day 21): not different from that of the controls
Blood glucose during OGTT (Male Zucker fa/fa rats; day 21, 50 min): 14.54 ± 0.65 mmol/L
Blood glucose during OGTT (Male Zucker fa/fa rats; day 21, 120 min): 10.67 ± 0.62 mmol/L
Glycemia after overnight fasting (basal, before OGTT) (Male Zucker fa/fa rats; day 21, morning (07.30 a. m.)): 4.88 ± 0.13 mmol/L
Fasting plasma insulin at the beginning of the OGTT (Male Zucker fa/fa rats; day 21, overnight fasting, listed as TP): 9.3 ± 1.5 ng/mL and ~9 ng/mL
Plasma insulin after a glucose stimulus (Male Zucker fa/fa rats; day 21 OGTT): remained mostly unchanged
Glucose area under the curve (G-AUC0-120 min) (Male Zucker fa/fa rats; day 21 OGTT, CO-group 823±41): 895 ± 50 mmol·min/L
I-AUC0-120 min compared with the other groups (Male Zucker fa/fa rats; day 21 OGTT, listed as TP): lower than in the CO- or RP-groups (NS); also recorded: slightly lower

Source: US20010051646A1, “Method for the improvement of islet signaling in diabetes mellitus and for its prevention” (priority 2000, published 2001)
